Literature values in patent US20200237731A1, “USE OF CLOXACILLIN TO INHIBIT/PREVENT BIOFILM FORMATION” (priority 2017, published 2020).

How the values were obtained:
Clostridium difficile = settings: Vuotto et al., 2016; cited from earlier work
S. aureus = settings: sub-MIC doses; Mirani et al., 2011; cited from earlier work
[1] = system: clinical isolates of S. aureus; settings: in vitro; Tunney et al., 2007; cited from earlier work
[2] = system: biofilm forming Staphylococcus aureus; settings: compounds tested individually; Singh and Mishra, 2012; cited from earlier work
S. aureus strain USA 300 = settings: sub-MIC doses; Mlynek et al., 2016; cited from earlier work

Cc1ncc([N+](=O)[O-])n1CCO [metronidazole]
biofilm formation by Clostridium difficile (Clostridium difficile): increases biofilm formation

CN[C@H](CC(C)C)C(=O)N[C@H]1C(=O)N[C@@H](CC(N)=O)C(=O)N[C@H]2C(=O)N[C@H]3C(=O)N[C@H](C(=O)N[C@H](C(=O)O)c4cc(O)cc(O)c4-c4cc3ccc4O)[C@H](O)c3ccc(c(Cl)c3)Oc3cc2cc(c3O[C@@H]2O[C@H](CO)[C@@H](O)[C@H](O)[C@H]2O[C@H]2C[C@](C)(N)[C@H](O)[C@H](C)O2)Oc2ccc(cc2Cl)[C@H]1O [vancomycin]
biofilm formation by S. aureus (S. aureus): induces biofilm formation

gentamicin
effect of treatment of bone cement on biofilm formation [1]: ineffectiveness

penicillin
preventive action against biofilm formation [2]: not sufficiently active

CC1(C)S[C@@H]2[C@H](NC(=O)[C@H](N)c3ccc(O)cc3)C(=O)N2[C@H]1C(=O)O [amoxicillin]
attachment of S. aureus strain USA 300 (S. aureus strain USA 300): induces attachment

CC1(C)S[C@@H]2[C@H](NC(=O)[C@H](N)c3ccccc3)C(=O)N2[C@H]1C(=O)O [ampicillin]
preventive action against biofilm formation [2]: not sufficiently active

Cc1onc(-c2ccccc2)c1C(=O)N[C@@H]1C(=O)N2[C@@H]1SC(C)(C)[C@@H]2C(=O)O [oxacillin]
biofilm formation by S. aureus (S. aureus): induces biofilm formation
